Measured values as given in patent US10166218B2, “3-(1H-indol-2-yl)-1H-pyrazolo[3,4-C]pyridines and therapeutic uses thereof” (Samumed, LLC, priority 2015, dated 2019).

Legend:
Type in all cases: cell-based
[1] = tested on: Wnt activity (Sp5-Luc reporter, TCF/LEF binding sites) in SW480 colon carcinoma cells; assay: Screening assay for Wnt activity: Sp5-Luc reporter gene assay in stably transduced SW480 cells; settings: Homo sapiens, overnight incubation
Description: The screening assay for Wnt activity is described as follows. Reporter cell lines can be generated by stably transducing cancer cell lines (e.g., colon cancer) or primary cells (e.g., IEC-6 intestinal cells) with a lentiviral construct that includes a Wnt-responsive promoter driving expression of the firefly luciferase gene.
SW480 colon carcinoma cells were transduced with a lentiviral vector expressing luciferase with a human Sp5 promoter consisting of a sequence of eight TCF/LEF binding sites. SW480 cells stably expressing the Sp5-Luc reporter gene and a hygromycin resistance gene were selected by treatment with 150 μg/mL of hygromycin for 7 days. These stably transduced SW480 cells were expanded in cell culture and used for all further screening activities. Each compound was dissolved in DMSO as a 10 mM stock and used to prepare compound source plates. Serial dilution (1:3, 10-point dose-response curves starting from 10 μM) and compound transfer was performed using the ECHO 550 (Labcyte, Sunnyvale, Calif.) into 384-well white solid bottom assay plates (Greiner Bio-One) with appropriate DMSO backfill for a final DMSO concentration of 0.1%. For Sp5-Luc reporter gene assays, the cells were plated at 4,000 cells/well in 384-well plates with medium containing 1% fetal bovine serum and incubated overnight at 37° C. and 5% CO2. Following incubation, 20 μl of BrightGlo luminescence reagent (Promega) was added to each well of the 384-well assay plates. The plates were placed on an orbital shaker for 2 min and then luminescence was quantified using the Envision (Perkin Elmer) plate reader. Readings were normalized to DMSO only treated cells, and normalized activities were utilized for EC50 calculations using the dose-response log (inhibitor) vs. response-variable slope (four parameters) nonlinear regression feature available in GraphPad Prism 5.0 (or Dotmatics). For EC50 of >10 μM, the percent inhibition at 10 μM is provided.

[2] = tested on: primary human fibroblasts derived from IPF patients (LL29 cells) treated with TGF-β1; α-smooth muscle actin (αSMA); assay: Inhibition of the fibrotic process: αSMA staining in TGF-β1 treated primary human fibroblasts from IPF patients (LL29 cells); settings: Fibroblast, 96 h, TGF-β1 20 ng/mL, 4 days, % cells positive for αSMA
Description: Representative compounds were screened using primary human fibroblasts (derived from IPF patients) treated with TGF-β1 to determine their ability to inhibit the fibrotic process.
Primary human fibroblasts derived from IPF patients (LL29 cells) [^1Xiaoqiu Liu, et. al., “Fibrotic Lung Fibroblasts Show Blunted Inhibition by cAMP Due to Deficient cAMP Response Element-Binding Protein Phosphorylation”, Journal of Pharmacology and Experimental Therapeutics (2005), 315(2), 678-687; ^2Watts, K. L., et. al., “RhoA signaling modulates cyclin D1 expression in human lung fibroblasts; implications for idiopathic pulmonary fibrosis”, Respiratory Research (2006), 7(1), 88] were obtained from American Type Culture Collection (ATCC) and expanded in F12 medium supplemented with 15% Fetal Bovine Serum and Penicillin/Streptomycin.
Each compound was dissolved in DMSO as a 10 mM stock and used to prepare compound source plates. Serial dilution (1:2, 11-point dose-response curves from 10 μM to 1.87 nM) and compound transfer was performed using the ECHO 550 (Labcyte, Sunnyvale, Calif.) into 384-well clear bottom assay plates (Greiner Bio-One) with appropriate DMSO backfill for a final DMSO concentration of 0.1%. LL29 cells are plated at 1,500 cells/well in 80 μL/well F12 medium supplemented with 1% Fetal Bovine Serum. One hour after addition of the cells, TGF-β1 (Peprotech; 20 ng/mL) was added to the plates to induce fibrosis (ref. 1 and 2 above). Wells treated with TGF-β1 and containing DMSO were used as controls. Cells were incubated at 37° C. and 5% CO2 for 4 days. Following incubation for 4 days, SYTOX green nucleic acid stain (Life Technologies [Thermo Fisher Scientific]) was added to the wells at a final concentration of 1 μM and incubated at room temperature for 30 min. Cells were then fixed using 4% formaldehyde (Electron Microscopy Sciences), washed 3 times with PBS followed by blocking and permeabilization using 3% Bovine Serum Albumin (BSA; Sigma) and 0.3% Triton X-100 (Sigma) in PBS. Cells were then stained with antibody specific to α-smooth muscle actin (αSMA; Abcam) (ref. 1 and 2 above) in 3% Bovine Serum Albumin (BSA; Sigma) and 0.3% Triton X-100 (Sigma) in PBS, and incubated overnight at 4° C. Cells were then washed 3 times with PBS, followed by incubation with Alexa Flor-647 conjugated secondary antibody (Life Technologies [Thermo Fisher Scientific]) and DAPI at room temperature for 1 hour. Cells were then washed 3 times with PBS and plates were sealed for imaging. αSMA staining was imaged by excitation at 630 nm and emission at 665 nm and quantified using the Compartmental Analysis program on the CellInsight CX5 (Thermo Scientific). Dead or apoptotic cells were excluded from analysis based on positive SYTOX green staining. % of total cells positive for αSMA were counted in each well and normalized to the average of 11 wells treated with TGF-β1 on the same plate using Dotmatics' Studies Software. The normalized averages (fold change over untreated) of 3 replicate wells for each compound concentration were used to create dose-responses curves and EC50 values were calculated using non-linear regression curve fit in the Dotmatics' Studies Software. For EC50 of >10 μM, the percent inhibition at 10 μM is provided.

SW480 colon cancer cells = assay: Cell viability assay (CellTiter-Blue) in SW480 colon cancer cells; settings: Homo sapiens, 96 h, four days, CellTiter-Blue
Method: Representative compounds were screened using the following assay procedure to assess the effect on cell viability as described below.
Each compound was dissolved in DMSO as a 10 mM stock and used to prepare compound source plates. Serial dilution (1:3, 8-point dose-response curves from 10 μM to 0.0045 μM) and compound transfer was performed using the ECHO 550 (Labcyte, Sunnyvale, Calif.) into 96-well clear bottom, black-walled plates (Corning-Costar).
Approximately 2×10^3 SW480 colon cancer cells were seeded into each well and allowed to incubate in the presence or absence of compound for four days at 37° C./5% CO2. Eight replicates of DMSO-treated cells served as controls and cells treated with compound were performed in duplicate.
After incubation, 20 μL of CellTiter-Blue (Promega) was added to each well allowed to incubate for approximately 3 hours. This reagent was a buffered solution which contains resazurin, metabolically active cells were able to reduce rezarurin (blue) into resorufin (pink) which was highly fluorescent. This measured fluorescence was used as a readout for cell viability.
After incubation, the plates were read at Ex 560 nm Em 590 nm (Cytation 3, BioTek). Dose-response curves were generated and EC50 concentration values were calculated using non-linear regression curve fit in the GraphPad Prism (San Diego, Calif.) or Dotmatics' Studies Software (Bishops Stortford, UK). For EC50 of >10 μM, the percent inhibition at 10 μM is provided.

IL-6 (THP-1 cells) = assay: Inhibition of IL-6 in LPS-stimulated THP-1 human monocyte cells (HTRF); settings: inhibition of IL-6 in LPS-stimulated THP-1 cells, HTRF, 10-point dose-response starting from 10 μM
Method: Human monocyte cell line (THP-1 cells; Catalog # TIB-202, ATCC, Manassas, Va.) were cultured in Roswell Park Memorial Institute (RPMI) 1640 Medium (Catalog #21870-100, Buffalo, N.Y.) with 1% L-glutamine, 1% HEPES, 1% Sodium Pyruvate, 2% Sodium Bicarbonate supplemented with 100 units/mL penicillin, 50 μg/mL streptomycin, 2-mercaptoethanol (0.05 mM) [basal medium] and 10% fetal bovine serum (Catalog #16140089, Life Technologies, Carlsbad, Calif.) at 37° C. and 5% CO2.
THP-1 cells were cultured in basal media with 1% FBS for 24 hours before the start of the assay. Each compound was dissolved in DMSO as a 10 mM stock and used to prepare compound source plates. Serial dilution (1:3, 10-point dose-response curves starting from 10 μM) and compound transfer was performed using the ECHO 550 (Labcyte, Sunnyvale, Calif.) into 384-well white low volume assay plates (Greiner Bio-One) with appropriate DMSO backfill for a final DMSO concentration of 0.1%. THP-1 cells were plated at 5000 cells/well in the 384-well plates and incubated at 37° C. for 2 h. 500 ng/mL of LPS was added after 2 hours and cells were incubated for another 22 hours at 37° C. Plates were spun in a centrifuge for 1 minute at […] and a mixture of anti-IL6 XL665, and anti-IL6 Cryptate diluted in reconstitution buffer (Cisbio Inc.) was added to each well. Following incubation for 3 hrs at room temperature, Homogeneous Time-Resolved Fluorescence (HTRF) was measured using the Envision (Perkin Elmer) at 665 nm and […]. The ratio of fluorescence at 665 nm to 620 nm was used as a readout for IL6 quantification. All samples were processed in duplicate. Readings were normalized to DMSO treated cells and normalized activities were utilized for EC50 calculations using the dose-response log (inhibitor) vs. response-variable slope (four parameters) nonlinear regression feature available in GraphPad Prism 5.0 (or Dotmatics). For EC50 of >10 μM, the percent inhibition at 10 μM is provided.

| Structure (SMILES) | EC50 [1] | EC50 [2] | EC50 (SW480 colon cancer cells) | EC50 (IL-6 (THP-1 cells)) |
| --- | --- | --- | --- | --- |
| CC(C)CC(=O)Nc1cncc(-c2cc3c(-c4cc5ccccc5[nH]4)n[nH]c3cn2)c1 [Compound 254, N-(5-(3-(1H-Indol-2-yl)-1H-pyrazolo[3,4-c]pyridin-5-yl)pyridin-3-yl)-3-methylbutanamide] | 154 nM | 139 nM | 1270 nM | 200 nM |
| CC(C)(C)CC(=O)Nc1cncc(-c2cc3c(-c4cc5c(-c6cccc(F)c6)cccc5[nH]4)n[nH]c3cn2)c1 [Compound 16, N-(5-(3-(4-(3-Fluorophenyl)-1H-indol-2-yl)-1H-pyrazolo[3,4-c]pyridin-5-yl)pyridin-3-yl)-3,3-dimethylbutanamide] | 1970 nM | 640 nM | 3920 nM | 1870 nM |
| CS(=O)(=O)NCc1cc(F)cc(-c2cccc3[nH]c(-c4n[nH]c5cnc(-c6cncc(CN7CCC(F)(F)C7)c6)cc45)cc23)c1 [Compound 502, N-(3-(2-(5-(5-((3,3-Difluoropyrrolidin-1-yl)methyl)pyridin-3-yl)-1H-pyrazolo[3,4-c]pyridin-3-yl)-1H-indol-4-yl)-5-fluorobenzyl)methanesulfonamide] | 253 nM | 28 nM | 882 nM | 481 nM |
| c1cc(-c2ccoc2)c2cc(-c3n[nH]c4cnc(-c5ccncc5)cc34)[nH]c2c1 [Compound 326, 3-(4-(Furan-3-yl)-1H-indol-2-yl)-5-(pyridin-4-yl)-1H-pyrazolo[3,4-c]pyridine] | 157 nM | 1390 nM | 103 nM | 5080 nM |
| CC(C)(C)C(=O)Nc1cncc(-c2cc3c(-c4cc5c(-c6ccc(F)cc6)cccc5[nH]4)n[nH]c3cn2)c1 [Compound 36, N-(5-(3-(4-(4-Fluorophenyl)-1H-indol-2-yl)-1H-pyrazolo[3,4-c]pyridin-5-yl)pyridin-3-yl)pivalamide] | 872 nM | 1010 nM | 5960 nM | 1630 nM |
| c1ccc(-c2cc3c(-c4cc5c(N6CCCCC6)cccc5[nH]4)n[nH]c3cn2)nc1 [Compound 196, 3-(4-(Piperidin-1-yl)-1H-indol-2-yl)-5-(pyridin-2-yl)-1H-pyrazolo[3,4-c]pyridine] | 3420 nM | 1160 nM | 6060 nM | 8780 nM |
| Fc1cccc(-c2cccc3[nH]c(-c4n[nH]c5cnc(-c6cncc(CN7CCC(F)(F)C7)c6)cc45)cc23)c1 [Compound 26, 5-(5-((3,3-Difluoropyrrolidin-1-yl)methyl)pyridin-3-yl)-3-(4-(3-fluorophenyl)-1H-indol-2-yl)-1H-pyrazolo[3,4-c]pyridine] | 1030 nM | 92 nM | 3950 nM | 3090 nM |
| CN1CCN(c2cccc3[nH]c(-c4n[nH]c5cnc(-c6cncnc6)cc45)cc23)CC1 [Compound 251, 3-(4-(4-Methylpiperazin-1-yl)-1H-indol-2-yl)-5-(pyrimidin-5-yl)-1H-pyrazolo[3,4-c]pyridine] | 1520 nM | 1690 nM | 1690 nM | 1080 nM |
| CN(C)Cc1cncc(-c2cc3c(-c4cc5c(-c6cccc(F)c6)cccc5[nH]4)n[nH]c3cn2)c1 [Compound 13, 1-(5-(3-(4-(3-Fluorophenyl)-1H-indol-2-yl)-1H-pyrazolo[3,4-c]pyridin-5-yl)pyridin-3-yl)-N,N-dimethylmethanamine] | 1350 nM | 2200 nM | 4930 nM | 7520 nM |
| c1ccc(CNCc2cncc(-c3cc4c(-c5cc6c(-c7cccs7)cccc6[nH]5)n[nH]c4cn3)c2)cc1 [Compound 360, N-Benzyl-1-(5-(3-(4-(thiophen-2-yl)-1H-indol-2-yl)-1H-pyrazolo[3,4-c]pyridin-5-yl)pyridin-3-yl)methanamine] | 1780 nM | 373 nM | 3470 nM | 1430 nM |
| c1cnc2cc(-c3n[nH]c4cnc(-c5cncc(OC6CCCCC6)c5)cc34)[nH]c2c1 [Compound 1025, 5-(5-(Cyclohexyloxy)pyridin-3-yl)-3-(1H-pyrrolo[3,2-b]pyridin-2-yl)-1H-pyrazolo[3,4-c]pyridine] | 171 nM | 584 nM | 1430 nM | 353 nM |
